From patent US12187728B2 (Raze Therapeutics, Inc., priority 2015, dated 2025) come the findings set out here.

Usually IC50 stands for the concentration that inhibits the measured activity by half. Lower therefore signals greater potency.

The test deals with T1, Human MTHFD2 (Homo sapiens, UniProt P13995).
T1 construct: residues 36-350 in Uniport ID P13995; His6 (N); made in house; host or cells: E. coli
T1 sequence (P13995 36-350): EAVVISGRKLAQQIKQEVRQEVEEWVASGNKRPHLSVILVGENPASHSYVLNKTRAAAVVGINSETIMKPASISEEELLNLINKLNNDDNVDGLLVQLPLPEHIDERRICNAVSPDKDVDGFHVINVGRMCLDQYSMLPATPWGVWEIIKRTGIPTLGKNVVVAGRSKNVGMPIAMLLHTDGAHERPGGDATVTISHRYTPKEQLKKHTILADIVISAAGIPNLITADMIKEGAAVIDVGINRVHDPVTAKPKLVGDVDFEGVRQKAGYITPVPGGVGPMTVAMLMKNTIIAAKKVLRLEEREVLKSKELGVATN
Nature of the test: MTHFD2 Activity Assay (dehydrogenase activity, diaphorase/resazurin coupled fluorescence). Format: biochemical. As to conditions: inhibitory activity (IC50 and/or binding constant); 0.2 nM MTHFD2, 11 concentrations. In a few lines: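 His6-tagged MTHFD2 (res. 36-350), E. coli-expressed, at 0.2 nM preincubated with compound 15 min in Hepes pH 8.0/MgCl2/KH2PO4 buffer; 70 μM CH2-THF, 1 mM NAD+ added with resazurin/diaphorase, 30 min, EDTA stop. Resorufin fluorescence (ex 525/em 598); IC50 from 11-point 4-parameter fit.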
Molecule `Cn1c(Nc2ccnc(C3CC(C(N)=O)C3)c2)nc2c1c(=O)n(Cc1ccc(Cl)c(Cl)c1)c(=O)n2C` (stereo not shown) [Example 319, 3-(4-(1-(3,4-dichlorobenzyl)-3,7-dimethyl-2,6-dioxo-2,3,6,7-tetrahydro-1H-purin-8-ylamino)pyridin-2-yl)cyclobutanecarboxamide] returned a concentration for half-maximal inhibition (IC50) of 10 to 1000 nM.

Molecule `Cn1c(N)nc2c1c(=O)n(Cc1ccc(Cl)c(Cl)c1)c(=O)n2C` [Example 153, 8-amino-1-(3,4-dichlorobenzyl)-3,7-dimethyl-1H-purine-2,6(3H,7H)-dione] had an IC50 of 5000 to 10000 nM.

`CCOC(=O)[C@H]1C[C@@H](Nc2nc3c(c(=O)n(Cc4ccc(Cl)c(Cl)c4)c(=O)n3C)n2C)C1` [Example 258, (±)-(cis)-ethyl 3-(1-(3,4-dichlorobenzyl)-3,7-dimethyl-2,6-dioxo-2,3,6,7-tetrahydro-1H-purin-8-ylamino)cyclobutanecarboxylate] showed an IC50 of 10 to 1000 nM.

`Cn1c(C2CCCNC2)nc2c1c(=O)n(Cc1cc3c(Cl)cccc3[nH]1)c(=O)n2C` (stereo not shown) [Example 391, 1-[(4-chloro-1H-indol-2-yl)methyl]-3,7-dimethyl-8-(3-piperidyl)purine-2,6-dione] had an IC50 of 10 to 1000 nM.

In the case of `Cn1c(=O)n(Cc2ccc(Cl)c(Cl)c2)c(=O)c2[nH]cnc21` [Example 251, 1-(3,4-dichlorobenzyl)-3-methyl-1H-purine-2,6(3H,7H)-dione], the half-maximal inhibitory concentration (IC50) was greater than 10000 nM.

Molecule `Cn1c(N[C@H]2CCCNC2)nc2c1c(=O)n(Cc1ccc(Cl)c(Cl)c1)c(=O)n2C` [Example 68, 1-[(3,4-dichlorophenyl)methyl]-3,7-dimethyl-8-{[(3S)-piperidin-3-yl]amino}-2,3,6,7-tetrahydro-1H-purine-2,6-dione] displayed an IC50 of 1000 to 5000 nM.

With `Cc1cccc2[nH]c(Cn3c(=O)c4c(nc(NC5CCCC(C(=O)O)C5)n4C)n(C)c3=O)cc12` (stereo not shown) [Example 342, 3-(3,7-dimethyl-1-((4-methyl-1H-indol-2-yl)methyl)-2,6-dioxo-2,3,6,7-tetrahydro-1H-purin-8-ylamino)cyclohexanecarboxylic acid], the IC50 was in the range of 10 to 1000 nM.

With `Cn1c(N[C@H]2C[C@H](C(=O)O)C2)nc2c1c(=O)n(Cc1cc3ccccc3[nH]1)c(=O)n2C` [Example 289, (1R,3R)-3-(1-((1H-indol-2-yl)methyl)-3,7-dimethyl-2,6-dioxo-2,3,6,7-tetrahydro-1H-purin-8-ylamino)cyclobutanecarboxylic acid], the IC50 lay within 10 to 1000 nM.

Turning to `Cn1c(Nc2ccnc(CN)n2)nc2c1c(=O)n(Cc1cc3c(Cl)cccc3[nH]1)c(=O)n2C` [Example 469, 8-(2-(aminomethyl)pyrimidin-4-ylamino)-1-((4-chloro-1H-indol-2-yl)methyl)-3,7-dimethyl-1H-purine-2,6(3H,7H)-dione], the IC50 was 10 to 1000 nM.

The molecule `Cn1c(NC2CNC(=O)C2)nc2c1c(=O)n(Cc1ccc(Cl)c(Cl)c1)c(=O)n2C` (racemic) [Example 88, (±)-1-[(3,4-dichlorophenyl)methyl]-3,7-dimethyl-8-[(5-oxopyrrolidin-3-yl)amino]-2,3,6,7-tetrahydro-1H-purine-2,6-dione] yielded a half-inhibitory concentration (IC50) of 10 to 1000 nM.

`Cn1c(NC2(CO)CCCC2)nc2c1c(=O)n(Cc1ccc(Cl)c(Cl)c1)c(=O)n2C` [Example 124, 1-(3,4-dichlorobenzyl)-8-(1-(hydroxymethyl)cyclopentylamino)-3,7-dimethyl-1H-purine-2,6(3H,7H)-dione] came in with an IC50 of 10 to 1000 nM.

`Cn1c(C(N)c2ccccn2)nc2c1c(=O)n(Cc1cc3c(Cl)cccc3[nH]1)c(=O)n2C` (stereo not shown) [Example 473, 8-(amino(pyridin-2-yl)methyl)-1-((4-chloro-1H-indol-2-yl)methyl)-3,7-dimethyl-1H-purine-2,6(3H,7H)-dione] yielded an IC50 of 10 to 1000 nM.

In the case of `Cn1c(Nc2ccccc2)nc2c1c(=O)n(Cc1ccc(Cl)c(Cl)c1)c(=O)n2C` [Example 127, 1-(3,4-dichlorobenzyl)-3,7-dimethyl-8-(phenylamino)-1H-purine-2,6(3H,7H)-dione], the IC50 lay in the range of 1000 to 5000 nM.

Take `Cn1c([C@H](N)Cc2ccccn2)nc2c1c(=O)n(Cc1cc3c(Cl)cccc3[nH]1)c(=O)n2C` [Example 472, (R)-8-(1-amino-2-(pyridin-2-yl)ethyl)-1-((4-chloro-1H-indol-2-yl)methyl)-3,7-dimethyl-1H-purine-2,6(3H,7H)-dione]: the IC50 is 10 to 1000 nM.

In turn, `Cn1c(NC[C@@H](O)CO)nc2c1c(=O)n(Cc1ccc(Cl)c(Cl)c1)c(=O)n2C` [Example 13, 1-[(3,4-dichlorophenyl)methyl]-8-{[(2R)-2,3-dihydroxypropyl]amino}-3,7-dimethyl-2,3,6,7-tetrahydro-1H-purine-2,6-dione] displayed an IC50 of 10 to 1000 nM.

`Cn1c(N[C@H]2CCOC2)nc2c1c(=O)n(Cc1ccc(Cl)c(Cl)c1)c(=O)n2C` [Example 49, 1-[(3,4-dichlorophenyl)methyl]-3,7-dimethyl-8-{[(3S)-oxolan-3-yl]amino}-2,3,6,7-tetrahydro-1H-purine-2,6-dione] yielded an IC50 of 10 to 1000 nM.

Molecule `C[C@H](CCO)Nc1nc2c(c(=O)n(Cc3ccc(Cl)cc3)c(=O)n2C)n1C` [Example 26, 1-[(4-chlorophenyl)methyl]-8-{[(2R)-4-hydroxybutan-2-yl]amino}-3,7-dimethyl-2,3,6,7-tetrahydro-1H-purine-2,6-dione] registered a half-maximal inhibitory concentration (IC50) of 1000 to 5000 nM.

For `Cn1c(CCO)nc2c1c(=O)n(Cc1ccc(Cl)c(Cl)c1)c(=O)n2C` [Example 158, 1-(3,4-dichlorobenzyl)-8-(2-hydroxyethyl)-3,7-dimethyl-1H-purine-2,6(3H,7H)-dione], the IC50 fell in the range of 10 to 1000 nM.

`Cn1c(NC[C@H](O)CO)nc2c1c(=O)n(Cc1ccc(Cl)cc1)c(=O)n2C` [Example 16, 1-[(4-chlorophenyl)methyl]-8-{[(2S)-2,3-dihydroxypropyl]amino}-3,7-dimethyl-2,3,6,7-tetrahydro-1H-purine-2,6-dione] displayed an IC50 greater than 10000 nM.

Molecule `Cn1c(N2CCC(N)C2)nc2c1c(=O)n(Cc1cc3c(Cl)cccc3[nH]1)c(=O)n2C` (stereo not shown) [Example 376] had an IC50 of 10 to 1000 nM.

Regarding `Cn1c(-n2cc(N)cn2)nc2c1c(=O)n(Cc1ccc(Cl)c(Cl)c1)c(=O)n2C` [Example 136], the IC50 was 10 to 1000 nM.

The molecule `Cn1c(Cn2c(=O)c3c(nc(Nc4cccnn4)n3C)n(C)c2=O)cc2cc(Cl)ccc21` [Example 203, 1-((5-chloro-1-methyl-1H-indol-2-yl)methyl)-3,7-dimethyl-8-(pyridazin-3-ylamino)-1H-purine-2,6(3H,7H)-dione] registered a half-maximal inhibitory concentration (IC50) of 5000 to 10000 nM.

As to `Cn1c(N[C@H]2CC[C@@H](C(=O)O)C2)nc2c1c(=O)n(Cc1ccc3sccc3c1)c(=O)n2C` [Example 87, (1R,3S)-3-{[1-(1-benzothiophen-5-ylmethyl)-3,7-dimethyl-2,6-dioxo-2,3,6,7-tetrahydro-1H-purin-8-yl]amino}cyclopentane-1-carboxylic acid], the IC50 fell in the range of 10 to 1000 nM.

`CC(c1ccc(Cl)c(Cl)c1)n1c(=O)c2c(nc(NCCCO)n2C)n(C)c1=O` (stereo not shown) [Example 72, 1-[1-(3,4-dichlorophenyl)ethyl]-8-[(3-hydroxypropyl)amino]-3,7-dimethyl-2,3,6,7-tetrahydro-1H-purine-2,6-dione] registered an IC50 greater than 10000 nM.

`COc1ccc2c(c1)cc(Cn1c(=O)c3c(nc(N[C@H]4CC[C@@H](O)C4)n3C)n(C)c1=O)n2C` [Example 188, 8-((1S,3R)-3-hydroxycyclopentylamino)-1-((5-methoxy-1-methyl-1H-indol-2-yl)methyl)-3,7-dimethyl-1H-purine-2,6(3H,7H)-dione] showed an IC50 of 1000 to 5000 nM.
